# Results: US20130267551A1, “SUBSTITUTED HYDROGENATED THIENO-PYRROLO[3,2-C]PYRIDINE, LIGANDS, A PHARMACEUTICAL COMPOSITION AND A METHOD FOR USING THE ABOVE” (ALLA CHEM, LLC, priority 2010, published 2013)
# Counter-ions that a name gives are not always drawn. Like-named read-outs stand apart in the source and are kept apart here.
# Assays:
# Histaminergic H2 = Histaminergic H2 (Homo sapiens, UniProt P25021); assay: competitive radioligand binding, Histaminergic H2; conditions: compound concentration of 1 μM; read-out: radio-labelled ligand displacement, Histaminergic H2
# Sequence of Histaminergic H2 (P25021 whole entry): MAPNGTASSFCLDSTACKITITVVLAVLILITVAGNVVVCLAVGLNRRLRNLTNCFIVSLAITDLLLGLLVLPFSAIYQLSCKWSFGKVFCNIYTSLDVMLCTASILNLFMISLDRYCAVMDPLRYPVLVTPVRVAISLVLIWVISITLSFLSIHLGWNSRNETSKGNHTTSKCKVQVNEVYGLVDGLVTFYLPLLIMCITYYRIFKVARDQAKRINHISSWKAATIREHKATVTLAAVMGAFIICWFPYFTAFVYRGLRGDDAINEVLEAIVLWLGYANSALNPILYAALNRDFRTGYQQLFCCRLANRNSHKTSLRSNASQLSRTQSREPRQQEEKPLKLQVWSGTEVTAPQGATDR
# Experimental: (§1) Profiles of pharmacological activity of thieno-pyrrolo[3,2-c]pyridines of the general formula 1. Biological activity test of compounds of the general formula 1 was carried out in the setting of competitive radioligand binding [I. Okun, S. Tkachenko, A. Khvat, et al., Current Alzheimer Research, 7(2), 97-112 (2010)], using a wide range of therapeutic targets including G-protein coupled receptors (GPCR), ion channels and neuromediator transporters. The tested activity was determined by quantitative measurement of radio-labelled ligand displacement by tested compounds of the general formula 1 at their concentration of 1 μM.
# Dopaminergic D2S = Dopaminergic D2S (Homo sapiens, UniProt P14416); assay: competitive radioligand binding, Dopaminergic D2S; conditions: compound concentration of 1 μM; read-out: radio-labelled ligand displacement, Dopaminergic D2S
# Sequence of Dopaminergic D2S (P14416 1-414 isoform P14416-2): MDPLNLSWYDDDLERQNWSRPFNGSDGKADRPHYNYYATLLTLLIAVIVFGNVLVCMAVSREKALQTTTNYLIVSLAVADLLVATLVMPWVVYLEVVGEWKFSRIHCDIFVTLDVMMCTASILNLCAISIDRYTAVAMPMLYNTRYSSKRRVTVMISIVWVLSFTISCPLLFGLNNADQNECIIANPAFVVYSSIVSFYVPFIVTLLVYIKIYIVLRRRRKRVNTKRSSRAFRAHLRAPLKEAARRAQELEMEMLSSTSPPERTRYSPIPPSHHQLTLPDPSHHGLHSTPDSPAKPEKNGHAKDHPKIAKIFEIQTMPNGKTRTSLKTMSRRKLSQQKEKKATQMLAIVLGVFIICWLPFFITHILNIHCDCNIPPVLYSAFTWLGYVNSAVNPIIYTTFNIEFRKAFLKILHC
# Experimental: as §1
# Histaminergic H3 = Histaminergic H3 (Homo sapiens, UniProt Q9Y5N1); assay: competitive radioligand binding, Histaminergic H3; conditions: compound concentration of 1 μM; read-out: radio-labelled ligand displacement, Histaminergic H3
# Sequence of Histaminergic H3 (Q9Y5N1 whole entry): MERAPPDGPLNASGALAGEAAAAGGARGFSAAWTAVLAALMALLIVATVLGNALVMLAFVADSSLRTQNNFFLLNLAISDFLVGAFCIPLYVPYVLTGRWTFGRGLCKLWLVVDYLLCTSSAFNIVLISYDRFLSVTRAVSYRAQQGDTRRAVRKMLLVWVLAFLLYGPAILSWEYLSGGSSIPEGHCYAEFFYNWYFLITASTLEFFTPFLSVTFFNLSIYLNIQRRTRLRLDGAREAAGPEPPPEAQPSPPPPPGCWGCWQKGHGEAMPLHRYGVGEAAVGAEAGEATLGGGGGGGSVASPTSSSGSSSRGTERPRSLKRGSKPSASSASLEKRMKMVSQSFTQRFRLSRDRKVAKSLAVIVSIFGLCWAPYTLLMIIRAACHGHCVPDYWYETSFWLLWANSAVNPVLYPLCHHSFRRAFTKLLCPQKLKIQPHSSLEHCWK
# Experimental: as §1
# Adrenergic α1B = assay: competitive radioligand binding, Adrenergic α1B; conditions: compound concentration of 1 μM
# Experimental: as §1
# Dopaminergic D1 = Dopaminergic D1 (Homo sapiens, UniProt P21728); assay: competitive radioligand binding, Dopaminergic D1; conditions: compound concentration of 1 μM; read-out: radio-labelled ligand displacement, Dopaminergic D1
# Sequence of Dopaminergic D1 (P21728 whole entry): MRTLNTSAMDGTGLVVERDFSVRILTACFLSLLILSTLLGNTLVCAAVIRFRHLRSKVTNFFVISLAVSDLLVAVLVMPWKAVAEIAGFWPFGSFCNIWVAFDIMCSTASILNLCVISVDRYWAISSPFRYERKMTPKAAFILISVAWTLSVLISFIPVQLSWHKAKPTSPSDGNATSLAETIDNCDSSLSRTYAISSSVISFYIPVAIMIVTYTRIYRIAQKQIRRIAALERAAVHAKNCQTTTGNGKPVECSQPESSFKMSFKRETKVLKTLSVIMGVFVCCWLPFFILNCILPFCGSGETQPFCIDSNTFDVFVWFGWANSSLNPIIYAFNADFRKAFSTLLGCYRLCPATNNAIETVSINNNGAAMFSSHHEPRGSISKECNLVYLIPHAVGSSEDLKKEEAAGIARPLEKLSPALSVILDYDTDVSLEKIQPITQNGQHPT
# Experimental: as §1
# Serotoninergic 5-HT6 = Serotoninergic 5-HT6 (Homo sapiens, UniProt P50406); assay: competitive radioligand binding, Serotoninergic 5-HT6; conditions: compound concentration of 1 μM; read-out: radio-labelled ligand displacement, Serotoninergic 5-HT6
# Sequence of Serotoninergic 5-HT6 (P50406 whole entry): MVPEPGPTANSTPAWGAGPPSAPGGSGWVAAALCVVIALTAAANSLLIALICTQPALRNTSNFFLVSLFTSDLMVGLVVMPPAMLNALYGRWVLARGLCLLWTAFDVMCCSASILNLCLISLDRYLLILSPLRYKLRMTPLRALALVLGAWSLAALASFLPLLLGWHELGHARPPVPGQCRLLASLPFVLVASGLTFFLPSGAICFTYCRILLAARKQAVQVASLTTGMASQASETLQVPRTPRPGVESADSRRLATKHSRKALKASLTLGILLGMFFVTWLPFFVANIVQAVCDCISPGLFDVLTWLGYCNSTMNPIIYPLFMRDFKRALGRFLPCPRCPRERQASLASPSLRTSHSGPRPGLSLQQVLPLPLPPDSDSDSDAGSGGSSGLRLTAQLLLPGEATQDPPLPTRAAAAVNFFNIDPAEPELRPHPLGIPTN
# Experimental: as §1
# Adrenergic α2A = target: T1, Adrenergic α2A (Homo sapiens, UniProt P08913); assay: competitive radioligand binding, Adrenergic α2A; conditions: read-out: radio-labelled ligand displacement, Adrenergic α2A
# T1 sequence (P08913 1-465): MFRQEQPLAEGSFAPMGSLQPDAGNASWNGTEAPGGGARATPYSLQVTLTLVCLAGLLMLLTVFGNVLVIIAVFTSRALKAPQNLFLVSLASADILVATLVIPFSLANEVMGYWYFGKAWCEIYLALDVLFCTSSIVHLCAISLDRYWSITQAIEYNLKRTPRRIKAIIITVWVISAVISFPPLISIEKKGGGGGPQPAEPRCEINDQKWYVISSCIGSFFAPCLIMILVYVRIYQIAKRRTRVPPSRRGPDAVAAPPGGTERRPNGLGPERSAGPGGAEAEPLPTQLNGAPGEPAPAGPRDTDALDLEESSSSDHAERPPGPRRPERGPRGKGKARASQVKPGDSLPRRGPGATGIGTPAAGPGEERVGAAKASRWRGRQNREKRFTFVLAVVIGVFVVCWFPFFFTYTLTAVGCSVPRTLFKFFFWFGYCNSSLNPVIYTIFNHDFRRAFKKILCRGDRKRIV
# Experimental: as §1
# Serotoninergic 5-HT1A = target: T2, Serotoninergic 5-HT1A (Homo sapiens, UniProt P08908); assay: competitive radioligand binding, Serotoninergic 5-HT1A; conditions: compound concentration of 1 μM; read-out: radio-labelled ligand displacement, Serotoninergic 5-HT1A
# T2 sequence (P08908 1-422): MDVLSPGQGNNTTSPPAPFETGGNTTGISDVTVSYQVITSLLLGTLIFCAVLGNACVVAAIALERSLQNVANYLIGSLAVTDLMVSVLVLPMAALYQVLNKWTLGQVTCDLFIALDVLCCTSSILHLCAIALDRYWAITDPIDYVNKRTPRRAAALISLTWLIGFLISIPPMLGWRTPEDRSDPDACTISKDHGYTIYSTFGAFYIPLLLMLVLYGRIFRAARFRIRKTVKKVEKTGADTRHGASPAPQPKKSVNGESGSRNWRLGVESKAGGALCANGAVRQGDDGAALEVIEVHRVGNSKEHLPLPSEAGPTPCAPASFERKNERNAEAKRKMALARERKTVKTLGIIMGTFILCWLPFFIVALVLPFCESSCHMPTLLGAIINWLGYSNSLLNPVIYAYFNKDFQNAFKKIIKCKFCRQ
# Experimental: as §1
# Dopaminergic D2L = Dopaminergic D2L (Homo sapiens, UniProt P14416); assay: competitive radioligand binding, Dopaminergic D2L; conditions: compound concentration of 1 μM; read-out: radio-labelled ligand displacement, Dopaminergic D2L
# Sequence of Dopaminergic D2L (P14416 whole entry): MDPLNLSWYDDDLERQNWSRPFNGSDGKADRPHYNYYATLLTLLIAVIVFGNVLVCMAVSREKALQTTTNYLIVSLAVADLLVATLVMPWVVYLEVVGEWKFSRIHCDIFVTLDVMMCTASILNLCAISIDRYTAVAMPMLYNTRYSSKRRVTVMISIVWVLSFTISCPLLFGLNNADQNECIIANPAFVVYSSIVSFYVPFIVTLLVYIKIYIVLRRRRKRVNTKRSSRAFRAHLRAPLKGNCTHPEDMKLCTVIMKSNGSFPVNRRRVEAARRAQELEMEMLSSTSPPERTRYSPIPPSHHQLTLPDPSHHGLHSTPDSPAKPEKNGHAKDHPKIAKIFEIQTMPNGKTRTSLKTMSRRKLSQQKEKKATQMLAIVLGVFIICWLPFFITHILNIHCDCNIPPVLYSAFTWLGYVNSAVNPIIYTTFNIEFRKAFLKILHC
# Experimental: as §1
# Dopaminergic D3 = Dopaminergic D3 (Homo sapiens, UniProt P35462); assay: competitive radioligand binding, Dopaminergic D3; conditions: compound concentration of 1 μM; read-out: radio-labelled ligand displacement, Dopaminergic D3
# Sequence of Dopaminergic D3 (P35462 whole entry): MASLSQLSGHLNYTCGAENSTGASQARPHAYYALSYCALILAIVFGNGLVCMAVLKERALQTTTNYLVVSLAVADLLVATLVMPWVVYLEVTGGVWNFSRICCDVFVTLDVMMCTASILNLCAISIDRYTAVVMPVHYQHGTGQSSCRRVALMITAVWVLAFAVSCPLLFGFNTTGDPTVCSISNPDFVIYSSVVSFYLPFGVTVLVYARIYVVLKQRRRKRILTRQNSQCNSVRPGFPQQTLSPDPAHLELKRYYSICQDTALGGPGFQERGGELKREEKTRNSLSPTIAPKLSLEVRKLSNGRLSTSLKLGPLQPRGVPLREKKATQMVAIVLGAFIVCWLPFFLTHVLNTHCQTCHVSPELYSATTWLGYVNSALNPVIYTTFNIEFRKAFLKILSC
# Experimental: as §1
# Serotoninergic 5-HT2B = Serotoninergic 5-HT2B (Homo sapiens, UniProt P41595); assay: competitive radioligand binding, Serotoninergic 5-HT2B; conditions: read-out: radio-labelled ligand displacement, Serotoninergic 5-HT2B
# Sequence of Serotoninergic 5-HT2B (P41595 whole entry): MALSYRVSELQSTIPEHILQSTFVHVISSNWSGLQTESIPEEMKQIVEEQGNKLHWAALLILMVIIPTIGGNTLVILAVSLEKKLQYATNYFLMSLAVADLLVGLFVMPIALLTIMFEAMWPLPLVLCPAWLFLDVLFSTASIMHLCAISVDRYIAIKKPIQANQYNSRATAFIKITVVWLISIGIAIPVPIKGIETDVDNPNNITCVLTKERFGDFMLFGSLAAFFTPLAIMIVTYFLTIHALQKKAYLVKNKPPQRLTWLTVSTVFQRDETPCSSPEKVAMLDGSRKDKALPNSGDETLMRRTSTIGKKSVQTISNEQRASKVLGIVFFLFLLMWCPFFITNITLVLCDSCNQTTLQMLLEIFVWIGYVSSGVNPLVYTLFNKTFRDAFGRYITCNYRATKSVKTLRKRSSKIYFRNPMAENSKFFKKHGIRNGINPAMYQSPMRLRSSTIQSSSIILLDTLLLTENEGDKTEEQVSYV
# Experimental: as §1
# Serotoninergic 5-HT1B = assay: competitive radioligand binding, Serotoninergic 5-HT1B; conditions: compound concentration of 1 μM
# Experimental: as §1
# Dopaminergic D4.2 = target: T3, Dopaminergic D4.2 (Homo sapiens, UniProt P21917, DEL265-296); assay: competitive radioligand binding, Dopaminergic D4.2; conditions: compound concentration of 1 μM; read-out: radio-labelled ligand displacement, Dopaminergic D4.2
# T3 sequence (P21917 with tags, fused parts or gaps DEL265-296): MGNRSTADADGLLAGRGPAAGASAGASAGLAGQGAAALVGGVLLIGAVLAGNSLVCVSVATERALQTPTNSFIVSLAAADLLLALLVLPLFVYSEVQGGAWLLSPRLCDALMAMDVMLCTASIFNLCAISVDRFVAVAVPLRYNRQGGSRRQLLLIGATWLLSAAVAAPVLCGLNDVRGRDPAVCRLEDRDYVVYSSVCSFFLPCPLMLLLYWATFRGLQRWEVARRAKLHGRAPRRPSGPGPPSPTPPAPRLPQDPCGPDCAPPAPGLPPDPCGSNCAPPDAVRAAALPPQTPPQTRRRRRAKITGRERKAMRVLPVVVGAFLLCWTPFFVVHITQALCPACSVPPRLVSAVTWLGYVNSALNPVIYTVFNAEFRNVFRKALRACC
# Experimental: as §1
# Histaminergic H1 = Histaminergic H1 (Homo sapiens, UniProt P35367); assay: competitive radioligand binding, Histaminergic H1; conditions: compound concentration of 1 μM; read-out: radio-labelled ligand displacement, Histaminergic H1
# Sequence of Histaminergic H1 (P35367 whole entry): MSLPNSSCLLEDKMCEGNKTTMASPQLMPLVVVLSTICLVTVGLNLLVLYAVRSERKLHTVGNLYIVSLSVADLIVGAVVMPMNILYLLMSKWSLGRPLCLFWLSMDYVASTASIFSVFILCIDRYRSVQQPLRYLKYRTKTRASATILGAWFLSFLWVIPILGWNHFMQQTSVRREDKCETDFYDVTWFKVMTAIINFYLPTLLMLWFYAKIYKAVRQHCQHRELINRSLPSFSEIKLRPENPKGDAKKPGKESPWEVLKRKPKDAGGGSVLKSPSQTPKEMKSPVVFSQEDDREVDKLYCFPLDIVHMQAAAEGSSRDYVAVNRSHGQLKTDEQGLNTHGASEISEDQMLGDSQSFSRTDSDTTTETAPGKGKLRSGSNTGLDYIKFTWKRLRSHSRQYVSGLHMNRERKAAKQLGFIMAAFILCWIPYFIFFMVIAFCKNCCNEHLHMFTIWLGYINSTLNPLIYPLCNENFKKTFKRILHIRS
# Experimental: as §1
Compound,inhibition at 1 µM (Histaminergic H2),inhibition at 1 µM (Dopaminergic D2S),inhibition at 1 µM (Histaminergic H3),"radio-labelled ligand displacement, Adrenergic α1B (Adrenergic α1B)",inhibition at 1 µM (Dopaminergic D1),inhibition at 1 µM (Serotoninergic 5-HT6),inhibition at 1 µM (Adrenergic α2A; compound concentration of 1 μM),inhibition at 1 µM (Serotoninergic 5-HT1A),inhibition at 1 µM (Dopaminergic D2L),inhibition at 1 µM (Dopaminergic D3),inhibition at 1 µM (Serotoninergic 5-HT2B; compound concentration of 1 μM),"radio-labelled ligand displacement, Serotoninergic 5-HT1B (Serotoninergic 5-HT1B)",inhibition at 1 µM (Dopaminergic D4.2),inhibition at 1 µM (Histaminergic H1),inhibition at 1 µM (Adrenergic α2A),inhibition at 1 µM (Serotoninergic 5-HT2B)
"CC1Cc2c(c3sc(Cl)cc3n2C#Cc2cccc(F)c2)C(C)N1C (stereo not shown) [2.10(3)•HCl, 6,7,8-trimethyl-4-(3-fluorophenyl)ethynyl-2-chloro-5,6,7,8-tetrahydro-4H-thieno[2′,3′:4,5]pyrrolo[3,2-c]pyridine]",33%,31%,-10%,5%,4%,35%,17%,6%,20%,23%,39%,9%,4%,65%,,
"Cc1cc2c(s1)c1c(n2Cc2ccccc2)CCN(C)C1.Cl [2.5(1)•HCl, 4-Benzyl-2,7-dimethyl-5,6,7,8-tetrahydro-4H-thieno[2′,3′:4,5]pyrrolo[3,2-c]pyridine hydrochloride]",44%,-6%,-4%,10%,5%,55%,,3%,8%,16%,,6%,-3%,96%,34%,91%
"Cc1cc2c3c(n(Cc4ccccc4)c2s1)CC1CCC3N1C (stereo not shown) [3.13(1)•HCl, 9-benzyl-2,10-dimethyl-4,5,6,7,8,9-hexahydro-4,7-epiminocyclohepta[b]thieno[3,2-d]pyrrole]",70%,25%,12%,69%,40%,67%,,19%,37%,21%,,20%,31%,88%,65%,90%
"Cc1cc2c(s1)c1c(n2-c2cccc(F)c2)CCN(C)C1 [2.4(3)•HCl, 2,7-dimethyl-4-(3-fluorophenyl)-5,6,7,8-tetrahydro-4H-thieno[2′,3′:4,5]pyrrolo[3,2-c]pyridine]",29%,3%,1%,10%,5%,26%,14%,3%,4%,11%,39%,5%,3%,38%,,
"Cc1ccc(CCCn2c3c(c4scc(Cl)c42)CN(C)CC3)cn1 [2.12(5)•HCl, 7-methyl-4-[3-(6-methylpyridin-3-yl)propyl]-3-chloro-5,6,7,8-tetrahydro-4H-thieno[2′,3′:4,5]pyrrolo[3,2-c]pyridine]",96%,89%,12%,97%,75%,100%,101%,57%,87%,71%,95%,62%,69%,99%,,
